Patent publication US11407754B2, “Substituted piperidines as kinase inhibitors” (Daewoong Pharmaceutical Co., Ltd., priority 2017, dated 2022)
One block for each compound: values may come before it.

Tests used:
human JAK3 = human JAK3 (Homo sapiens (Human), UniProt P52333); experiment: JAK3 kinase inhibitory activity, ADP Glo assay; conditions: read-out: JAK3 IC50, recombinant human JAK3, ATP 5 uM
human BTK = human BTK (Homo sapiens (Human), UniProt Q06187); experiment: BTK kinase inhibitory activity, ADP Glo assay; conditions: read-out: BTK IC50, recombinant human BTK, ATP 10 uM
human BTK, sequence (Q06187 whole entry): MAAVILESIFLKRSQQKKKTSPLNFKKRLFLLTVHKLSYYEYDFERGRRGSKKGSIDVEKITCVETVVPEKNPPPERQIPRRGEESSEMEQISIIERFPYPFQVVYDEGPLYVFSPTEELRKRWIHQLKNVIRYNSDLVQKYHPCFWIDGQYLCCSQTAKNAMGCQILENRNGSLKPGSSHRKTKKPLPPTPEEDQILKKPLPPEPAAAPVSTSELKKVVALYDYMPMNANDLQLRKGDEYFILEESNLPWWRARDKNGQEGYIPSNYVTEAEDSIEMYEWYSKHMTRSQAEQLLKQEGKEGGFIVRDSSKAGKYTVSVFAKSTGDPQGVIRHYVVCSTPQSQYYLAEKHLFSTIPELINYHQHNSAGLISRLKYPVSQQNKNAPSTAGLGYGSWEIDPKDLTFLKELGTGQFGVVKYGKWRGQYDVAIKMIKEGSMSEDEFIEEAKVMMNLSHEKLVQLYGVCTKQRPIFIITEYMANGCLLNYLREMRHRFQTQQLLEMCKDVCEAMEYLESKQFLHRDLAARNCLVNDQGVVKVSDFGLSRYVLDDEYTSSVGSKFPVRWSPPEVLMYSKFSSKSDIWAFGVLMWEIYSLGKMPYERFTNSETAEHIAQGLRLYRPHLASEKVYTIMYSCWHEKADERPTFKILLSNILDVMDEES

JAK3 = experiment: JAK3-mediated cell assay (HT-2/IL-2 assay), STAT5 phosphorylation; type: cell-based; conditions: HT2; STAT5 phosphorylation induced by IL-2 (20 ng/ml) in HT-2 cells, HTRF
Protocol: The inhibitory activities against JAK3 kinase at the cellular level were measured for the compounds prepared in the Examples through in vitro analysis of STAT5 phosphorylation induced by IL-2 stimulation in HT-2 cells. Specifically, STAT5 phosphorylation was analyzed using HTRF® phospho-STAT5 (Tyr694) assay kit (Cisbio, 64AT5PEG), which was purchased from Cisbio. HT-2 cells were cultured for 2 hours in growth factor-free medium. The cultured HT-2 cells were dispensed into 96-well plates by 50 ul so as to be a density of 2.5×10^5 cells/well. The compounds prepared in the previous Examples were prepared so as to be finally a 0.3% DMSO aqueous solution, and HT-2 cells was treated with the compounds for 30 minutes. After the compound treatment, IL-2 was prepared so as to be finally a concentration of 20 ng/ml, and HT-2 cells was treated for 10 minutes. The cells were then disrupted by treating lysis buffers for 30 minutes. The level of STAT5 phosphorylation was measured according to the instructions of HTRF® phospho-STAT5 assay kit, and the inhibitory activity of the compounds according to the invention was calculated. For the analysis of the results of each compound, Microsoft Excel was used, and IC50 values were calculated by SigmaPlot software.

human JAK3, sequence (P52333 whole entry): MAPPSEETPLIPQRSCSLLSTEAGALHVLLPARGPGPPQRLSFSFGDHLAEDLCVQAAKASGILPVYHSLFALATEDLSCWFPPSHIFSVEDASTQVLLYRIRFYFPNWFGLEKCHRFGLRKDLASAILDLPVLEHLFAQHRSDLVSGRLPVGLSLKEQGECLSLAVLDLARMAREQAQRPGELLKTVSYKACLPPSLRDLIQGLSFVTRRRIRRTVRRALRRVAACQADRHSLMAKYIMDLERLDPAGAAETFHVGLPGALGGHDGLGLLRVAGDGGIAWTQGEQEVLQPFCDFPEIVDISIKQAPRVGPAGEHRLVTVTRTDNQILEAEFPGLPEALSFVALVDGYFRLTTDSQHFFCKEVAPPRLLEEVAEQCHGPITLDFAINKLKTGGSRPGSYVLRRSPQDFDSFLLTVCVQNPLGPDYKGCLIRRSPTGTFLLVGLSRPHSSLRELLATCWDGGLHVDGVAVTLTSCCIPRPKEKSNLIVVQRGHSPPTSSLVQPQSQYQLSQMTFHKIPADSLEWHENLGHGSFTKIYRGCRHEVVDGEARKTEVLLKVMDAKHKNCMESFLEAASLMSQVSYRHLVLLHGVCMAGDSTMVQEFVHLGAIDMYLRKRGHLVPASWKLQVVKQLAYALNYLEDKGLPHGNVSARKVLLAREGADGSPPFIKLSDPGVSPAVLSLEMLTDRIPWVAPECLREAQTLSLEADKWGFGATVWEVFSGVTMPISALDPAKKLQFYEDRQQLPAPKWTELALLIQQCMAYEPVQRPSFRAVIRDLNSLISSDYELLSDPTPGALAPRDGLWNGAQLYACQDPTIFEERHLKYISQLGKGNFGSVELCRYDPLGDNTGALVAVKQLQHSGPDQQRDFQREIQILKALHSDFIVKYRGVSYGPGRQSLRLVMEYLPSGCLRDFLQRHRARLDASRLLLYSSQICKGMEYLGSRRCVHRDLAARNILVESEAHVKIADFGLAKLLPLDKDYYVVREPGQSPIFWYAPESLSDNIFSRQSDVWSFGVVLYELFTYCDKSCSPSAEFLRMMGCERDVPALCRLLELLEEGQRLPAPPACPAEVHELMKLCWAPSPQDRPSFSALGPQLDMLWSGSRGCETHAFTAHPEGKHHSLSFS

IC50 (human JAK3): 0.6 nM | IC50 (human BTK): 3.4 nM
Structure (SMILES): C=CC(=O)N1C[C@H](Nc2nc(Nc3cnsc3)nc3[nH]cc(Cl)c23)CC[C@@H]1C [Example 6]

IC50 (human JAK3): 0.3 nM | IC50 (human BTK): 1.6 nM
Structure (SMILES): C=CC(=O)N1C[C@H](Nc2nc(Nc3cnn(CC(F)F)c3)nc3[nH]cc(Cl)c23)CC[C@@H]1C [Example 7, 1-((2S,5R)-5-((5-chloro-2-((1-(2,2-difluoroethyl)-1H-pyrazol-4-yl)amino)-7H-pyrrolo[2,3-d]pyrimidin-4-yl)amino)-2-methylpiperidin-1-yl)prop-2-en-1-one]

IC50 (human JAK3): 5.7 nM | IC50 (human BTK): 0.9 nM
Structure (SMILES): C=CC(=O)N1C[C@H](N(C)c2nc(Nc3cnn(CC)c3)nc3[nH]nc(Cl)c23)CC[C@@H]1C [Example 11, 1-((2S,5R)-5-((3-chloro-6-((1-ethyl-1H-pyrazol-4-yl)amino)-1H-pyrazolo[3,4-d]pyrimidin-4-yl)(methyl)amino)-2-methylpiperidin-1-yl)prop-2-en-1-one]

IC50 (human JAK3): 0.3 nM | IC50 (human BTK): 2 nM
Structure (SMILES): C=CC(=O)N1C[C@H](Nc2nc(Nc3cnn(C4CC4)c3)nc3[nH]cc(Cl)c23)CC[C@@H]1C [Example 9, 1-((2S,5R)-5-((5-chloro-2-((1-cyclopropyl-1H-pyrazol-4-yl)amino)-7H-pyrrolo[2,3-d]pyrimidin-4-yl)amino)-2-methylpiperidin-1-yl)prop-2-en-1-one]

Further lines, the compound ahead of its results:

Structure (SMILES): C=CC(=O)N1C[C@H](Nc2nc(Nc3cnn(CCNC(=O)OC(C)(C)C)c3)nc3[nH]ccc23)CC[C@@H]1C [Example 5]
IC50 (human JAK3): 1.2 nM | IC50 (human BTK): 5.3 nM

Structure (SMILES): C=CC(=O)N1C[C@H](Nc2nc(Nc3cnn(CC(C)C)c3)nc3[nH]ccc23)CC[C@@H]1C [Example 3, 1-((2S,5R)-5-((2-((1-isobutyl-1H-pyrazol-4-yl)amino)-7H-pyrrolo[2,3-d]pyrimidin-4-yl)amino)-2-methylpiperidin-1-yl)prop-2-en-1-one]
IC50 (human JAK3): 1.8 nM | IC50 (human BTK): 3.5 nM

Structure (SMILES): C=CC(=O)N1C[C@H](Nc2nc(Nc3cnn(C4CCCC4)c3)nc3[nH]ccc23)CC[C@@H]1C [Example 4, 1-((2S,5R)-5-((2-((1-cyclopentyl-1H-pyrazol-4-yl)amino)-7H-pyrrolo[2,3-d]pyrimidin-4-yl)amino)-2-methylpiperidin-1-yl)prop-2-en-1-one]
IC50 (human JAK3): 2.2 nM | IC50 (human BTK): 5.4 nM

Structure (SMILES): C=CC(=O)N1C[C@H](Nc2nc(Nc3cnn(CC)c3)nc3[nH]ccc23)CC[C@@H]1C [Example 2, 1-((2S,5R)-5-((2-((1-ethyl-1H-pyrazol-4-yl)amino)-7H-pyrrolo[2,3-d]pyrimidin-4-yl)amino)-2-methylpiperidin-1-yl)prop-2-en-1-one]
IC50 (human JAK3): 0.4 nM | IC50 (JAK3): 360 nM | IC50 (human BTK): 1.3 nM

Structure (SMILES): C=CC(=O)N1C[C@H](Nc2nc(Nc3cnn(CC)c3)nc3[nH]cc(Cl)c23)CC[C@@H]1C [Example 1, 1-((2S,5R)-5-((5-chloro-2-((1-ethyl-1H-pyrazol-4-yl)amino)-7H-pyrrolo[2,3-d]pyrimidin-4-yl)amino)-2-methylpiperidin-1-yl)prop-2-en-1-one]
IC50 (human JAK3): 0.3 nM | IC50 (JAK3): 90.9 nM | IC50 (human BTK): 1.2 nM
